From patent publication US20110224221A1, “HEMATOPOIETIC PROTECTION AGAINST IONIZING RADIATION USING SELECTIVE CYCLIN-DEPENDENT KINASE 4/6 INHIBITORS” (priority 2008, published 2011)
Entries after “also recorded” stand apart in the source; their conditions may differ.

Experiments:
tHDF (HS68) cells = test: Clonogenic assay after IR, tHDF (HS68); assay type: cell-based, human; conditions: PD0332991 100 nM, 2BrIC 2 μM, CINK4 6 μM, IR 0-9 Gy
Protocol: FIG. 6A is a set of micrograph images of crystal violet stained cell cultures of cyclin-dependent kinase 4/6 (CDK4/6)-dependent cells (HS68) plated at different cell/well ratios and treated with either dimethyl sulfoxide (DMSO) as a negative control or with the selective CDK4/6 inhibitor 2-bromo-12,13-dihydro-5H-indolo[2,3-a]pyrrolo[3,4]carbazole-5,6-dione (2BrIC) at 2 μM for 24 hours prior to exposure to ionizing radiation at 0, 1.5, 3, 6, or 9 gray (Gy), as indicated.
Data plotted is the area/cell ratio of PD0332991 treated cells to dimethyl sulfoxide (DMSO) treated cells. Error bars show standard error of the mean.
FIG. 9A is a set of micrograph images of cell cultures of cyclin-dependent kinase 4/6 (CDK4/6)-dependent cells (HS68) plated at different cell/well ratios and pretreated with either dimethyl sulfoxide (DMSO) as a control or with the nonselective CDK4/6 inhibitor trans-4-[[6-ethylamino)-2-[[1-phenylmethyl)-1H-indol-5-yl]amino]-4-pyrimidinyl]amino]]-cyclohexanol (CINK4) at 6 μM for 24 hours prior to exposure to ionizing radiation at 0, 1.5, 3, 6, or 9 gray (Gy), as indicated. The plates were stained with crystal violet to visualize cell colonies.
Clonogenic Assay: The clonogenic assay was performed as previously described (see Franken et al., Nature protocols, 1, 2315-1319 (2006)) with cells plated in a six-well plate at least 6 hours prior to treatment with CDK inhibitor for 24 hours, with 6 Gy IR occurring 12 hours after initiation of CDK inhibitor exposure. Cells were grown for 16 days, washed, fixed, and stained with crystal violet. Plates were then imaged using an Odyssey infrared scanner (Li-Cor Biosciences, Lincoln, Nebr., United States of America) and quantified using the accompanying software.

tHDF cells = test: Western blot of DNA damage response marker phospho-P53 after IR; assay type: cell-based, human; conditions: treatment prior to IR; PD0332991 100 nM for 24 hours, 6 Gy
Protocol: FIG. 4A are images of Western blots of a DNA damage response marker (phospho-P53) in telomerized human diploid fibroblast (tHDF) cell lysates 3 hours after or 6 hours after a 6 gray (Gy) dose of ionizing radiation (IR) or following no IR, as indicated above the blot images. […] Actin western blot is shown as a loading control.
FIG. 4B is a bar graph showing the normalized phospho-P53 intensity in the telomerized human diploid fibroblast (tHDF) cells described in FIG. 4A.
Western Blots: Western blots were performed on cell lysates in NP-40 lysis buffer with protease inhibitors (Roche, Basel, Switzerland) and phosphatase inhibitors (Calbiochem, San Diego, Calif., United States of America) as previously described (see Ramsey et al., Cancer Res., 67, 4732-4741), using anti-p53-phospho-Ser15 (Cell Signaling Technology, Beverly, Mass., United States of America), Bax, p21, and actin-HRP (Santa Cruz Biotechnology, Inc., Santa Cruz, Calif., United States of America).

[1] = system: telomerized human diploid fibroblasts; test: Comet tail assay after IR; assay type: cell-based; conditions: 24 hours treatment prior to IR, 0-8 Gy
Protocol: Telomerized human diploid fibroblasts were irradiated and then immobilized. After immobilization, cell nuclei were exposed to an electric field by gel electrophoresis, with fragmented DNA migrating further than undamaged DNA.
Comet tail assay: Cells were seeded and allowed to adhere overnight in a 6 cm culture dish. Cells were then treated for 24 hours with a CDK4/6 inihibitor or dimethyl sulfoxide (DMSO) only. After 24 hours cells were irradiated as described. Cells were then fixed and treated as described in manufacturer instructions for the COMETASSAY™ purchased from Trevigen (Gaithersburg, Md., United States of America). In summary, cells were embedded in agarose, the membranes are permeabilized, DNA is denatured in alkali solution, and the DNA is mobilized using gel electrophoresis. Images of the comet tails were obtained by fluorescent microscopy (see Microscopy) and images were analyzed using CometScore software from TriTek Corp. (Sumerduck, Va., United States of America) at either 10× or 20× magnification.

O=C1NC(=O)c2c1c1c3ccccc3[nH]c1c1[nH]c3cc(Br)ccc3c21 [Compound 2BrIC, 2-bromo-12,13-dihydro-5H-indolo[2,3-a]pyrrolo[3,4]-carbazole-5,6-dione]
clonogenic cell survival after IR (area/cell ratio relative to DMSO) (tHDF (HS68) cells): enhanced clonogenic cell survival
DNA damage response (phospho-P53) after IR (tHDF cells): attenuated
DNA damage (comet tails) after IR [1]: attenuated; also recorded: potently reduce comet tail formation

CC(=O)c1c(C)c2cnc(Nc3ccc(N4CCNCC4)cn3)nc2n(C2CCCC2)c1=O [PD0332991, 6-acetyl-8-cyclopentyl-5-methyl-2-(5-piperazin-1-yl-pyridin-2-ylamino)-8H-pyrido-[2,3-d]-pyrimidin-7-one]
clonogenic cell survival after IR (area/cell ratio relative to DMSO) (tHDF (HS68) cells): enhanced clonogenic cell survival
DNA damage response (phospho-P53) after IR (tHDF cells): attenuated
DNA damage (comet tails) after IR [1]: greatly attenuated; also recorded: potently reduce comet tail formation
